Measured values: patent publication US11382985B2, “Anti-tumour immune responses to modified self-epitopes” (Scancell Limited, priority 2015, dated 2022)
Square brackets hold non-standard residues; d marks the D form. Ends that are not written are not given here. Cit = NC(=O)NCCC[C@H](N)C(=O)O

What was measured:
B16iDR4 = assay: B16 tumour with IFNγ inducible DR4 (B16iDR4) challenge; format: in vivo, DR4 mice
Experimental: (§1) C57BL/6 mice (Charles River, UK), HLA-DR4 mice (Taconic, USA), HHDII/DR1 mice (Pasteur institute, France) and the HHD/HLA-DP4 transgenic strain of mouse as described in patent WO2013/017545 A1 (EMMA repository, France) were used, aged between 8 and 12 weeks, and cared for by the staff at Nottingham Trent University. All work was carried out under a Home Office project licence. Peptides were dissolved in PBS to 1 mg/ml and then emulsified (a series of dilutions) with different adjuvants: CpG and MPLA 6 μg/mouse of each (Invivogen, UK), Incomplete Freund's 50 μl/mouse (Sigma, UK), poly I:C 10 μg/mouse (Invivogen, UK), Imiquimod 25 μg/mouse (Invivogen, UK) and GMCSF 10 μg/mouse (Peprotech, UK). Peptides (25 μg/mouse) were injected subcutaneously at the base of the tail. DNA (1 μg/mouse) was coated onto 1.0 μm gold particles (BioRad, Hemel Hempstead, UK) using the manufacturer's instructions and administered intradermally by genegun (BioRad). Homspera (10 nM/mouse) (PeptideSynthetics, UK) was injected intradermally with genegun immunisation. Mice were immunized at either day 0 for peptide immunisation or days, 0 and 7 for genegun immunisation, unless otherwise stated. Spleens were removed for analysis at day 14 for peptide and day 20 for peptide or genegun immunisation unless stated otherwise.
For tumour challenge experiments mice were challenged with 2.5×10^4 B16 DR4 cells or 1×10^6 LLC2/LLC2 DR4 cells, 2.5×10^5 Pan02 DR4 cells in matrigel or […] above. Tumour growth was monitored at 3-4 days intervals and mice were humanely euthanized once tumour reached ≥10 mm in diameter.

splenocytes [1] = assay: Peptide immunisation and ex vivo Elispot, DP4 mice; format: in vivo, HHD/HLA-DP4 transgenic mouse
Experimental: as §1
(§2) Elispot assays were performed using murine IFNγ, IL-17 and IL-10 capture and detection reagents according to the manufacturer's instructions (Mabtech, Sweden). In brief, anti-IFNγ, IL-17 and IL-10 antibodies were coated onto wells of 96-well Immobilin-P plate. Synthetic peptides (at a variety of concentrations) and 5×10^5 per well splenocytes were added to the wells of the plate in triplicate. Tumour target cells were added where relevant at 5×10^4/well in triplicate and plates incubated for 40 hrs at 37° C. After incubation, captured IFN and IL-10 were detected by biotinylated anti-IFNγ and IL-10 antibodies and developed with a streptavidin alkaline phosphatase and chromogenic substrate. Spots were analysed and counted using an automated plate reader (Cellular Technologies Ltd).

splenocytes [2] = assay: Peptide immunisation and ex vivo Elispot, DR4 mice; format: in vivo, HLA-DR4 transgenic mouse
Experimental: as §1, §2

B16DR4 tumour = assay: B16DR4 melanoma tumour challenge; format: in vivo, DR4 mice
Experimental: as §1
For tumour challenge experiments mice were challenged with 2.5×10^4 B16 DR4 cells or 1×10^6 LLC2/LLC2 DR4 cells, 2.5×10^5 Pan02 DR4 cells in matrigel or 4×10^5 B16 HHDII DP4 cells subcutaneously on the right flank 3 days prior to primary immunisation and then were immunised as above. Tumour growth was monitored at 3-4 days intervals and mice were humanely euthanized once tumour reached ≥10 mm in diameter.

Pan02 DR4 = Pan02 DR4 pancreatic tumour challenge; format: in vivo, DR4 transgenic mice; settings: peptide immunisation 4 days after tumour challenge; none of unimmunized survived
parental LLC2 tumour = assay: Parental Lewis lung carcinoma LLC2 challenge; format: in vivo, DR4 mice; settings: challenge four days before peptide immunisation
Experimental: as §1, with “Mice were immunized at either day 0 for peptide immunisation or days, 0 and 7 for genegun immunisation, unless otherwise stated. Spleens were removed for analysis at day 14 for peptide and day 20 for peptide or genegun immunisation unless stated otherwise.” left out
For tumour challenge experiments mice were challenged with 2.5×10^4 B16 DR4 cells or 1×10^6 LLC2/LLC2 DR4 cells, […] above. Tumour growth was monitored at 3-4 days intervals and mice were humanely euthanized once tumour reached ≥10 mm in diameter.

PBMCs = assay: Thymidine proliferation assay on healthy donor PBMCs; format: cell-based, human; settings: for healthy donors showing a proliferative response: PBMCs from 6 healthy donors, peptide 10 μg/ml, days 4, 7, 11
Experimental: PBMC were isolated from freshly drawn heparinised blood by Ficol-Hypaque (Sigma) gradient centrifugation. PBMC (1.5×10^6 cells/well) were stimulated with single peptides (final concentration 10 μg/ml) in RPMI containing 5% pooled autologous human serum, 2 mM glutamine, 20 mM HEPES and Penicillin-streptomycin (1%) in a final volume of 2 ml. Stimulation with purified protein derivative, PPD (final concentration 10 μg/ml) served as a positive control for the proliferative capacity of PBMC. As a negative control PBMC were incubated with medium alone. The PBMC were cultured at 37° C. in an atmosphere of 5% CO2 for 4, 7 and 11 days. To assess proliferation at these times points 100 μl in triplicate from each culture was aliquoted into a round bottom well of a 96 well plate and 3H-thymidine added (0.0185 MBq/well) and incubated at 37° C. for a further 8 hours. The cultures were harvested onto unifilter plates and incorporation of ^3H-thymidine was determined by β-scintillation counting. The results were assessed by calculating the stimulation index (SI) as the ratio of the mean of counts per minute (cpm) of epitope-stimulated to the mean of unstimulated cultures. The proliferative assay was considered positive when SI >2.5.

[3] = DP4 mice immunised with human 241-260cit
[4] = DR4 mice immunised with human 241cit
[5] = DR4 mice, single immunisation 25 μg human 241cit + CpG/MPLA

## VIGMDVAASEFF-CIT-SGKYDLD (VIGMDVAASEFF[Cit]SGKYDLD; listed as Homo sapiens) [Enolase 241cit]
B16iDR4; challenge 4 days prior to peptide immunisation, control 0%
  survival at day 42: 90%
B16iDR4; challenge 4 days prior to peptide immunisation, control median 65 mm^3
  tumour volume, median, day 17 post tumour implant: 0 mm^3
B16iDR4; immunised survivors rechallenged with B16iDR4 at day 42, all controls dead by day 29
  survival 39 days after rechallenge: 67%
Splenocytes [1]; [3]
  IFNγ response in presence of CD4 blocking antibody: blocked
  IFNγ response in presence of CD8 blocking antibody: not
  IFNγ response to shorter peptide spanning aa241-255: show cross reactivity
  IL-10 in response to the cit peptide: no IL-10
Splenocytes [1]; DP4 mice, three doses of human Enolase 241cit, label = restimulating peptide
  IFNγ response compared to the wild type peptides: increased IFNγ responses
Splenocytes [1]; DP4 transgenic mice
  IFNγ response in combination with imiquimod: induces IFNγ responses
  IFNγ response in combination with poly I:C: induces IFNγ responses
  IL-10 response in combination with poly I:C: no IL-10
Splenocytes [2]; 1 or 3 doses with 25 μg of peptide
  IFN response with GM-CSF: Detectable responses
Splenocytes [2]; [4]
  IFNγ response in CD4 depleted fraction: not
  IFNγ response in CD4 enriched fraction: present
  IFNγ response in presence of CD4 blocking antibody (GK1.5): significantly reduced
Splenocytes [2]; DR4 mice immunised with human 241cit, ex vivo IL-10 ELISpot
  IL-10 production in response to peptide stimulation: No significant increase in IL-10 production
Splenocytes [2]; DR4 mice immunised with human 241cit, label = restimulating peptide
  IFNγ response in presence of human MHC class II blocking antibody (L243): significantly reduced
Splenocytes [2]; DR4 mice, single dose
  IFNγ response with adjuvant CpG/MPLA: detected
  IFNγ response with adjuvant IFA: no IFNγ response
  IL-10 response with adjuvant CpG/MPLA: not
  IL-10 response with adjuvant IFA: detected
Splenocytes [2]; DR4 mice, single dose in CpG/MPLA
  IFNγ responses after 6 and 14 days compared to after 2 days: significantly increased
Splenocytes [2]; DR4 mice, single dose in CpG/MPLA, sacrificed after 2, 6 or 14 days
  time after immunisation at which IFNγ response is detectable: 6 days
Splenocytes [2]; [5]
  IFNγ response to human citrullinated sequence compared to media: significant IFNγ response
  IFNγ response to mouse citrullinated sequence compared to media: significant IFNγ response
  immune response to human or mouse wild type (wt) sequence: neither
Splenocytes [2]; DR4 transgenic mice
  IFNγ response in combination with poly I:C: induces IFNγ responses
  IL-10 response in combination with poly I:C: no IL-10
Splenocytes [2]; peptide immunisation without adjuvant
  response in the absence of adjuvant: no response
B16DR4 tumour; B16DR4 challenge, three doses of 5 μg in GM-CSF over three weeks, control 0% by day 28
  animals surviving at day 45: 70%
B16DR4 tumour; peptide immunisation after B16DR4 implant, control median 49 mm^3
  tumour volume, median, day 17 post tumour implant: 0 mm^3
B16DR4 tumour; peptide immunisation after B16DR4 implant, unimmunised 15%
  survival after 45 days: 50%
Pan02 DR4
  survival at day 60: 50%
Parental LLC2 tumour
  survival time versus unimmunised control: small but significant increase in survival time
PBMCs; Donor 1, day 4
  proliferation index, mean: 0.8
PBMCs; Donor 1, day 7
  proliferation index, mean: 28.6
PBMCs; Donor 1, day 11
  proliferation index, mean: 20.4
PBMCs; Donor 2, day 11
  proliferation index, mean: 2.7
PBMCs; Donor 4, day 4
  proliferation index, mean: 12.5
PBMCs; Donor 4, day 7
  proliferation index, mean: 28
PBMCs; Donor 4, day 11
  proliferation index: 4.4
PBMCs; Donor 6
  proliferative response: non-responder
PBMCs
  healthy donors showing a proliferative response: 5/6
PBMCs; listed as Enolase 241-260 citrullinated at position 253
  healthy donors showing a proliferative response: 4/6
